These results are taken from patent publication US9624197B2, “2-pyridylamino-4-nitrile-piperidinyl orexin receptor antagonists” (MERCK SHARP & DOHME CORP., priority 2012, dated 2017).

Molecules are shown by their SMILES. pIC50: −log10 of the molar value.

One assay has as its target human orexin-2 receptor (Homo sapiens (Human), UniProt O43614). In words: FLIPR Ca2+ Flux Assay, CHO cells expressing human orexin-2 receptor. It counts as cell-based. The settings on record: agonist 70 pM Ala-6,12 human orexin-A, read-out: hOX2R FLIPR IC50. As to the method: (§1) The utility of the compounds in accordance with the present invention as orexin receptor OX1R and/or OX2R antagonists may be readily determined without undue experimentation by methodology well known in the art, including the “FLIPR Ca^2+ Flux Assay” (Okumura et al., Biochem. Biophys. Res. Comm. 280:976-981, 2001). In a typical experiment the OX1 and OX2 receptor antagonistic activity of the compounds of the present invention was determined in accordance with the following experimental method. For intracellular calcium measurements, Chinese hamster ovary (CHO) cells expressing the rat orexin-1 receptor or the human orexin-2 receptor, are grown in Iscove's modified DMEM containing 2 mM L-glutamine, […], 1% hypoxanthine-thymidine supplement, 100 U/ml penicillin, 100 μg/ml streptomycin and 10% heat-inactivated fetal calf serum (FCS). The cells are seeded at 20,000 cells/well into Becton-Dickinson black 384-well clear bottom sterile plates coated with poly-D-lysine. All reagents were from GIBCO-Invitrogen Corp. The seeded plates are incubated overnight at […]. and 5% CO2. Ala-6,12 human orexin-A as the agonist is prepared as a 1 mM stock solution in 1% bovine serum albumin (BSA) and diluted in assay buffer (HBSS containing 20 mM HEPES, 0.1% BSA and 2.5 mM probenecid, pH7.4) for use in the assay at a final concentration of 70 pM. Test compounds are prepared as 10 mM stock solution in DMSO, then diluted in 384-well plates, first in DMSO, then assay buffer. On the day of the assay, cells are washed 3 times with 100 μl assay buffer and then incubated for 60 min (37° C., 5% CO2) in 60 μl assay buffer containing 1 μM Fluo-4AM ester, 0.02% pluronic acid, and 1% BSA. The dye loading solution is then aspirated and cells are washed 3 times with 100 μl assay buffer. 30 μl of that same buffer is left in each well. Within the Fluorescent Imaging Plate Reader (FLIPR, Molecular Devices), test compounds are added to the plate in a volume of 25 μl, incubated for 5 min and finally 25 μl of agonist is added. Fluorescence is measured for each well at 1 second intervals for 5 minutes and the height of each fluorescence peak is compared to the height of the fluorescence peak induced by 70 pM Ala-6,12 orexin-A with buffer in place of antagonist. For each antagonist, IC50 value (the concentration of compound needed to inhibit 50% of the agonist response) is determined. Alternatively, compound potency can be assessed by a radioligand binding assay (described in Bergman et. al. Bioorg. Med. Chem. Lett. 2008, 18, 1425-1430) in which the inhibition constant (Ki) is determined in membranes prepared from CHO cells expressing either the OX1 or OX2 receptor. The intrinsic orexin receptor antagonist activity of a compound which may be used in the present invention may be determined by these assays.

The next assay concerns the target rat orexin-1 receptor (Rattus norvegicus, UniProt P56718). The assay is described as follows: FLIPR Ca2+ Flux Assay, CHO cells expressing rat orexin-1 receptor. The settings on record: agonist 70 pM Ala-6,12 human orexin-A, text says rat orexin-1 receptor, read-out: hOX1R FLIPR IC50. Type of assay: cell-based. As for the experimental part: as §1

Chain of human orexin-2 receptor (O43614 whole entry): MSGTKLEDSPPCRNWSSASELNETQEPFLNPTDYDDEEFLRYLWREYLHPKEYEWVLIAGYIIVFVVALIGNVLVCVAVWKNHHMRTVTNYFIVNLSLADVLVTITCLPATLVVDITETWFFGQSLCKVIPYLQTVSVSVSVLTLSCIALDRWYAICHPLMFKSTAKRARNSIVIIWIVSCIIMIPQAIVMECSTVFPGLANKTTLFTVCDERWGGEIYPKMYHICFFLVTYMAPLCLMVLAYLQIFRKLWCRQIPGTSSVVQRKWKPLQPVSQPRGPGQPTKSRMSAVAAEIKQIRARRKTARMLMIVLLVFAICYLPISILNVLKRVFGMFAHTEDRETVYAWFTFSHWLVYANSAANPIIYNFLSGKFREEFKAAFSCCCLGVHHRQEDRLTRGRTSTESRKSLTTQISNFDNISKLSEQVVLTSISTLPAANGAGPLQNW

Turning to `COc1c(C#N)ccnc1N(C)[C@@H]1CC[C@@H](C)N(C(=O)c2ccsc2-c2ncccn2)C1` [Example 11, 3-methoxy-2-(methyl{(3R,6R)-6-methyl-1-[(2-pyrimidin-2-ylthiophen-3-yl)carbonyl]piperidin-3-yl}amino)pyridine-4-carbonitrile], the pIC50 (usually the negative decadic logarithm of the IC50, by convention in mol/L) was 7.47 at human orexin-2 receptor and less than 5.00 at rat orexin-1 receptor. Taken in the same sequence, the figures for `C=CCN(c1cc(C#N)ccn1)[C@@H]1CC[C@@H](C)N(C(=O)c2ccccc2-n2nccn2)C1` [Example 13, 2-{[(3R,6R)-6-methyl-1-{[2-(2H-1,2,3-triazol-2-yl)phenyl]carbonyl}piperidin-3-yl](prop-2-en-1-yl)amino}pyridine-4-carbonitrile] were 7.64 and 5.59.

`Cc1c(C#N)ccnc1N[C@@H]1CC[C@@H](C)N(C(=O)c2ccccc2-n2ncnn2)C1` [Example 5, 3-methyl-2-{[(3R,6R)-6-methyl-1-{[2-(2H-tetrazol-2-yl)phenyl]-carbonyl}-piperidin-3-yl]amino}pyridine-4-carbonitrile]: the pIC50 was 8.15 on human orexin-2 receptor and 5.94 at rat orexin-1 receptor.

For `C[C@@H]1CC[C@@H](Nc2cc(C#N)ccn2)CN1C(=O)c1ccccc1-n1nccn1` [Example 1, 2-(((3R,6R)-1-(2-(2H-1,2,3-Triazol-2-yl)benzoyl)-6-methylpiperidin-3-yl)amino)isonicotinonitrile], the pIC50 at human orexin-2 receptor was 7.54; at rat orexin-1 receptor, 5.76. For `CCN(c1cc(C#N)ccn1)[C@@H]1CC[C@@H](C)N(C(=O)c2ccccc2-n2nccn2)C1` [Example 12, 2-{ethyl[(3R,6R)-6-methyl-1-{[2-(2H-1,2,3-triazol-2-yl)phenyl]carbonyl}piperidin-3-yl]amino}-pyridine-4-carbonitrile], in that order: 7.64 and 5.70. For `C[C@@H]1CC[C@@H](N(C)c2cc(C#N)ccn2)CN1C(=O)c1ccccc1-n1ncnn1` [Example 9, 2-{methyl[(3R,6R)-6-methyl-1-{[2-(2H-tetrazol-2-yl)phenyl]-carbonyl}piperidin-3-yl]amino}pyridine-4-carbonitrile], in that order: 7.49 and 5.65. Regarding `C[C@@H]1CC[C@@H](N(C)c2cc(C#N)ccn2)CN1C(=O)c1ccccc1-n1nccn1` [Example 8, 2-(((3R,6R)-1-(2-(2H-1,2,3-Triazol-2-yl)benzoyl)-6-methylpiperidin-3-yl)(methyl)amino)isonicotinonitrile], the values for the negative logarithm of the IC50 (pIC50) at human orexin-2 receptor and on rat orexin-1 receptor were 7.70 and 5.69, respectively. As to `CC(=O)N(c1cc(C#N)ccn1)[C@@H]1CC[C@@H](C)N(C(=O)c2ccccc2-n2nccn2)C1` [Example 15, N-((3R,6R)-1-(2-(2H-1,2,3-Triazol-2-yl)benzoyl)-6-methylpiperidin-3-yl)-N-(4-cyanopyridin-2-yl)acetamide], the negative-log IC50 (pIC50) on rat orexin-1 receptor is less than 5.00.

Consider `COc1c(C#N)ccnc1N[C@@H]1CC[C@@H](C)N(C(=O)c2ccsc2-n2nccn2)C1` [Example 6, 2-((3R,6R)-1-(2-(2H-1,2,3-Triazol-2-yl)thiophene-3-carbonyl)-6-methylpiperidin-3-ylamino)-3-methoxyisonicotinonitrile], for which the pIC50 on human orexin-2 receptor is 7.96; on rat orexin-1 receptor it was 6.08. For `COc1c(C#N)ccnc1N[C@@H]1CC[C@@H](C)N(C(=O)c2ccccc2-n2nccn2)C1` [Example 2, 3-methoxy-2-{[(3R,6R)-6-methyl-1-{[2-(2H-1,2,3-triazol-2-yl)phenyl]carbonyl}piperidin-3-yl]amino}pyridine-4-carbonitrile], in that order: 7.96 and 6.57. Taken in the same sequence, the figures for `COc1c(C#N)ccnc1N[C@@H]1CC[C@@H](C)N(C(=O)c2ccsc2-c2ncccn2)C1` [Example 7, 3-methoxy-2-((3R,6R)-6-methyl-1-(2-(pyrimidin-2-yl)thiophene-3-carbonyl)piperidin-3-ylamino)isonicotinonitrile] were 7.33 and 6.42. Taken in the same sequence, the figures for `C[C@@H]1CC[C@@H](Nc2cc(C#N)ccn2)CN1C(=O)c1ccccc1-n1ncnn1` [Example 3, 2-(((3R,6R)-1-(2-(2H-Tetrazol-2-yl)benzoyl)-6-methylpiperidin-3-yl)amino)isonicotinonitrile] were 8.05 and 5.72.

As for `Cc1c(C#N)ccnc1N[C@@H]1CC[C@@H](C)N(C(=O)c2ccccc2-n2nccn2)C1` [Example 4, 2-(((3R,6R)-1-(2-(2H-1,2,3-Triazol-2-yl)benzoyl)-6-methylpiperidin-3-yl)amino)-3-methylisonicotinonitrile], the pIC50 was 8.15 on human orexin-2 receptor and 6.13 on rat orexin-1 receptor. Taken in the same sequence, the figures for `CCCN(c1cc(C#N)ccn1)[C@@H]1CC[C@@H](C)N(C(=O)c2ccccc2-n2nccn2)C1` [Example 14, 2-{[(3R,6R)-6-methyl-1-{[2-(2H-1,2,3-triazol-2-yl)phenyl]carbonyl}piperidin-3-yl](propyl)-amino}pyridine-4-carbonitrile] were 7.89 and 6.48. Taken in the same sequence, the figures for `COc1c(C#N)ccnc1N(C)[C@@H]1CC[C@@H](C)N(C(=O)c2ccsc2-n2nccn2)C1` [Example 10, 3-methoxy-2-{methyl[(3R,6R)-6-methyl-1-{[2-(2H-1,2,3-triazol-2-yl)thiophen-3-yl]carbonyl}piperidin-3-yl]amino}pyridine-4-carbonitrile] were 7.41 and less than 5.00.
